Ends that are not written are not given here.
Key:
G9A methyltransferase [1] = assay: In vitro methylation of unmodified H1.0 peptide with G9A, products by LC-MS; format: biochemical
Method: In order to identify the precise sites of methylation by G9A and GLP methyltransferases on histone H1.0, in vitro methylation assays were performed and subsequently analyzed by Liquid Chromatography and High-resolution Mass Spectrometry (LC-MS) analysis. Methylation reactions were set up using either G9A methyltransferase (NEB, M0235S, Lot #0031201) or GLP methyltransferase (Cayman Chemical, 10755). The methyl donor in each reaction was unlabeled S-Adenosyl-L-Methionine (NEB, B9003S). The H1.0 substrate in each reaction was either unmodified H1.0 peptide labeled with biotin (ThermoFisher Scientific, Biotin-[…] (SEQ ID NO:69)), di-methylated H1.0 peptide (ThermoFisher Scientific, Biotin-[…]^(me2)PK (SEQ ID NO:70)), or full-length recombinant human H1.0 (NEB, M2501S). […]
For the Liquid Chromatography and High-resolution Mass Spectrometry (LC-MS) analysis, samples were prepared as described above and about 1 μg o the product was injected onto a Thermo Scientific Easy nLC system configured with a 10 cm×100 um trap column and a 25 cm×100 um ID resolving column. […] This ensured optimal full-scan data for quantification. […]
Protein identification was performed using Thermo Scientific Proteome Discoverer version 1.4 (including Sequest and Percolator algorithms) using RefSeqHuman sequence database. […] Protein quantification was performed using Pinpoint version 1.4 software. The Pinpoint quantification workflow included importing the Proteome Discoverer .msf files as spectral libraries. Identified peptides were subsequently quantified in MS .raw files using the Pinpoint peak finding, chromatographic alignment and area calculation algorithms.
In order to identify the precise locations of G9A methylation on unmodified H1.0 peptide ([…] (SEQ ID NO:36)), a methylation reaction was set up and the products identified by LC-MS. […] The methylation reaction was subsequently analyzed by LC-MS, and each spectral peak (corresponding to a peptide species in the final reaction) was identified and quantified using spectral counts. […]

G9A methyltransferase [2] = assay: Radiolabel in vitro methylation assay of H1.0 peptide (autoradiography); format: biochemical; conditions: 10U G9A, S-[Methyl-3H] SAM, 37° C. 1 hour
Method: In order to visualize methylation of H1.0 peptide by G9A methyltransferase in vitro, a methylation assay was performed incorporating a radiolabelled methyl donor, which allows for visualization of methylated peptide on a gel after autoradiography exposure. The following methylation reaction was set up in a 1.5 ml tube: 1×HMT reaction buffer (50 mM Tris-HCl, 5 mM MgCl2, 4 mM dithiothreitol, pH 9.0), 10U G9A Methyltransferase (NEB, M0235S, Lot #0031201), 3.2 mM Adenosyl-L-Methionine, S-[Methyl-3H] (Perkin Elmer, NET155H, Lot #1664720), 10 μg H1.0 peptide (ThermoFisher Scientific, Biotin-[…] (SEQ ID NO:69)), final volume 10 μl. A control reaction as above but without H1.0 peptide was also created. Reactions were incubated in a thermocycler at 37° C. for 1 hour. Reactions were stopped by incubating on ice for 5 minutes, and subsequently resolved on a 16.5% Tricine gel (BioRad, 4563063). Gels were soaked in 30% methanol, 5% glycerol for 30 minutes before vacuum drying at RT for 24 hours. Autoradiography analysis of dried gels with a phosphoimager (Molecular Dynamics) was then performed to assess effective methylation of H1.0 peptide with methyl-3H groups by the G9A methyltransferase. (Example 1, FIG. 8A)
The methylation reaction was subsequently resolved on a gel and visualized via autoradiography. […] A control reaction lacking H1.0 peptide yielded no tritium-labeled products.

G9A methyltransferase, sequence (Q9Z148 969-1263 limits assumed): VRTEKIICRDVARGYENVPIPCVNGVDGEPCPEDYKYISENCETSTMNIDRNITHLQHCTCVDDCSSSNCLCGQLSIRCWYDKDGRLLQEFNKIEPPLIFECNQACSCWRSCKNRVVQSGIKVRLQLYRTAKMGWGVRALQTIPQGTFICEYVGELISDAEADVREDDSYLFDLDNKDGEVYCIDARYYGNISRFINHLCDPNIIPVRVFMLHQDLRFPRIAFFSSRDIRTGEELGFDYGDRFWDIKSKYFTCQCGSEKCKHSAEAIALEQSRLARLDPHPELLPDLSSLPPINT

H1.0K180 dimethylated, % of all peptides (G9A methyltransferase [1]; LC-MS spectral counts, 10U G9A, 3.2 mM S-Adenosyl-L-Methionine, 37° C. 1 hour): 99.9%
estimated methylation efficiency (G9A methyltransferase [1]; dimethylation of K180 by G9A): about 99%
methylation of H1.0 peptide by G9A (tritium-labeled methyl groups, band at 4 kDa) (G9A methyltransferase [2]): capable of methylating an H1.0 peptide
Sequence: AKPVKASKPKKAKPVKPK (not fully specified (N-terminus); listed as Homo sapiens) [unmethylated H1.0 peptide, unmodified H1.0 peptide substrate for in vitro methylation]
sites of methylation by G9A on the peptide (G9A methyltransferase [1]; LC-MS): dimethylates lysine K180 but not other lysines (K166, K174, K175 or K177)

Reference: patent publication US10921324B2, “Compositions and methods related to the methylation of histone H1.0 protein” (Aelan Cell Technologies, Inc., priority 2016, dated 2021)
